System: dog B2 receptor
Test: Antagonist potency in cells expressing dog B2 receptor
Type: cell-based
Conditions: compared with human B2 receptor
Description: The bradykinin B2 receptor is well known for its species selective pharmacology (Paquet et al., Br. J. Pharmacol. (126), 1083-1090, 1999 (DOI: 10.1038/sj.bjp.0702403); Burgess et al., Br. J. Pharmacol. (129), 77-86, 2000 (DOI: 10.1038/sj.bjp.0703012)). […] Pharmacol. 11:916; DOI: 10.3389/fphar.2020.00916.

[2H][C@@](C)(NC(=O)COC(F)F)c1cc(F)cc(Cl)c1COc1cccc2c(-c3ncnn3C)cc(C)nc12 [compound of formula (I)]
fold less potent towards the dog B2 receptor: 18,000 fold
